Data published in patent US12319700B2, “Monohydrate potassium salt of a thienopyridone derivative and its preparation process” (POXEL, priority 2018, dated 2025).

Tests used:
[1] = tested on: diet-induced obesity non-alcoholic steatohepatitis (DIO-NASH) mouse model; test: Diet-induced obesity NASH (DIO-NASH) mouse model: effects on liver and adipose tissue metabolism; format: in vivo; conditions: 8 weeks; for change of liver weight compared to ctrl group / decrease in hepatic stellate cell activation (aSMA positive staining) / decrease in plasma free fatty acid level / increase of PGCl-α protein expression in AT / reduction of fat pad mass / reduction of liver TG content / hormone-sensitive lipase P-HSLser565 / down-regulation of fibrotic gene expression (type I collagen): p<0.01; for hormone-sensitive lipase P-HSLser563 / hormone-sensitive lipase P-HSLser565: adipose tissue; for down-regulation of fibrotic gene expression (type I collagen): liver
Protocol: (§1) • The effects of the monohydrate potassium salt of formula (I) (or “Compound (I)”) on liver and adipose tissue (AT) metabolism in a diet-induced obesity non-alcoholic steatohepatitis (DIO-NASH) mouse model are reported here.
(§2) After 41 weeks, only DIO-NASH mice with biopsy-confirmed steatosis (score ≥2) and fibrosis (stage ≥1) were included and received orally (n=12) vehicle (ctrl), compound (I) 35 or 75 mg/kg twice daily for 8 weeks.

AMPK = AMPK activity (P-AMPK/AMPK) in liver and visceral adipose tissue of DIO-NASH mice; format: in vivo, mouse; conditions: 8 weeks; for increase of AMPK activity in the liver (P-AMPK/AMPK): p<0.05
Protocol: as §1, §2

ob/ob mice [2] = test: Body weight in male obese diabetic dyslipidemic ob/ob mice, 5 weeks of treatment; format: in vivo, mouse
Protocol: (§3) Effects of Compound (I) in male obese diabetic dyslipidemic ob/ob mice after 5 weeks of treatment.
(§4) Compound (I) was administered at 25, 50 and 100 mg/kg twice a day by oral route in carboxy methylcellulose 0.5%/Tween 80 (98/2) (n=10). A group of ob/ob mice was treated with carboxy methylcellulose 0.5%/Tween 80 (98/2) as a control group.

ob/ob mice [3] = test: Dyslipidemia in male obese diabetic dyslipidemic ob/ob mice, 5 weeks of treatment; format: in vivo, mouse
Protocol: as §3, §4

[4] = tested on: Spontaneous Hypertensive Rat (SHR); test: Arterial pressure by telemetry in conscious unrestrained Spontaneous Hypertensive Rat (SHR); format: in vivo; conditions: 150 mg/kg bid for 5 days, over 24 h on the 5th day
Protocol: The effects of Compound (I) on arterial pressure was measured in conscious unrestrained well-known rat model of hypertension, the Spontaneous Hypertensive Rat (SHR), using telemetry. SHR aged of 21-22 weeks present a higher arterial pressure compared to healthy Wistar rats: systolic arterial pressure was 200 mmHg vs 120 mmHg in Wistar rats.
Four male SHR were submitted to surgery to implant a blood pressure catheter into the abdominal aorta. The telemetry transmitter was attached to the peritoneum. Ten days after recovery, the same animal received vehicle or Compound (I) 150 mg/kg bid administered for 5 days, 5 weeks apart. Systolic, diastolic and mean arterial pressures were recorded during 24 h, the 5th day of treatment.

[5] = 50 mg/kg twice a day oral, p<0.001
[6] = 100 mg/kg twice a day oral, p<0.001

O=c1[nH]c2sc(Cl)c(-c3ccc4c(c3O)CCCC4)c2c([O-])c1-c1ccccc1.[K+] [Compound (I), monohydrate potassium salt of 2-chloro-4-hydroxy-3-(5-hydroxytetralin-6-yl)-5-phenyl-7H-thieno[2,3-b]pyridin-6-one]
reduction of NAFLD Activity Score (NAS) ([1]; 35 mg/kg orally twice daily, from 6.6, p<0.01): −32% | change of liver weight compared to ctrl group ([1]; 35 mg/kg orally twice daily): −23% | decrease in hepatic stellate cell activation (aSMA positive staining) ([1]; 35 mg/kg orally twice daily): −34% | decrease in plasma free fatty acid level ([1]; 35 mg/kg orally twice daily): −37% | increase of PGCl-α protein expression in AT ([1]; 35 mg/kg orally twice daily): +321% | reduction of fat pad mass ([1]; 35 mg/kg orally twice daily): −25% | reduction of liver TG content ([1]; 35 mg/kg orally twice daily): −36% | NAFLD Activity Score (NAS) after treatment ([1]; 35 mg/kg orally twice daily, from 6.6): 4.5 | reduction of NAFLD Activity Score (NAS) ([1]; 75 mg/kg orally twice daily, from 6.7, p<0.01): −44% | change of liver weight compared to ctrl group ([1]; 75 mg/kg orally twice daily): −33% | decrease in hepatic stellate cell activation (aSMA positive staining) ([1]; 75 mg/kg orally twice daily): −39% | decrease in plasma free fatty acid level ([1]; 75 mg/kg orally twice daily): −38% | increase of PGCl-α protein expression in AT ([1]; 75 mg/kg orally twice daily): +409% | reduction of fat pad mass ([1]; 75 mg/kg orally twice daily): −37% | reduction of liver TG content ([1]; 75 mg/kg orally twice daily): −42% | decrease of MCP-1 gene expression in AT ([1]; 75 mg/kg orally twice daily, p<0.05): −55% | NAFLD Activity Score (NAS) after treatment ([1]; 75 mg/kg orally twice daily, from 6.7): 3.8 | hormone-sensitive lipase P-HSLser563 ([1]; 35 mg/kg orally twice daily): −67% | hormone-sensitive lipase P-HSLser565 ([1]; 35 mg/kg orally twice daily): +416% | hormone-sensitive lipase P-HSLser563 ([1]; 75 mg/kg orally twice daily): −52% | hormone-sensitive lipase P-HSLser565 ([1]; 75 mg/kg orally twice daily): +425% | down-regulation of fibrotic gene expression (type I collagen) ([1]; 35 mg/kg orally twice daily): −65% | down-regulation of fibrotic gene expression (type I collagen) ([1]; 75 mg/kg orally twice daily): −68% | AMPK activation in visceral AT (P-AMPK/AMPK) (AMPK; 35 mg/kg orally twice daily, ns): +130% | increase of AMPK activity in the liver (P-AMPK/AMPK) (AMPK; 35 mg/kg orally twice daily): +128% | AMPK activation in visceral AT (P-AMPK/AMPK) (AMPK; 75 mg/kg orally twice daily, p<0.01): +152% | increase of AMPK activity in the liver (P-AMPK/AMPK) (AMPK; 75 mg/kg orally twice daily): +143% | decrease of body weight compared to day 1 (ob/ob mice [2]; 25 mg/kg twice a day oral): −17% | decrease of body weight compared to day 1 (ob/ob mice [2]; 50 mg/kg twice a day oral): −24% | decrease of plasma FFA (ob/ob mice [3]; 25 mg/kg twice a day oral, NS): −14% | decrease of plasma triglyceride (ob/ob mice [3]; 25 mg/kg twice a day oral, NS): −19% | increase in HDL cholesterol (ob/ob mice [3]; 25 mg/kg twice a day oral, NS): +12% | decrease of plasma triglyceride (ob/ob mice [3]; [5]): −40% | increase in HDL cholesterol (ob/ob mice [3]; [5]): +31% | decrease of plasma FFA (ob/ob mice [3]; 50 mg/kg twice a day oral, p<0.05): −35% | decrease of plasma FFA (ob/ob mice [3]; 100 mg/kg twice a day oral, NS): −21% | decrease of plasma triglyceride (ob/ob mice [3]; [6]): −43% | increase in HDL cholesterol (ob/ob mice [3]; [6]): +32% | reduction of diastolic arterial pressure (DAP) compared to vehicle-treated SHR [4]: −17 mmHg | reduction of mean arterial pressure (MAP) compared to vehicle-treated SHR [4]: −18 mmHg | reduction of systolic arterial pressure (SAP) compared to vehicle-treated SHR [4]: −19 mmHg
